# Assay results as given in PMC9519446, “Discovery of an Orally Active Benzoxaborole Prodrug Effective in the Treatment of Chagas Disease in Non-human Primates” (Nature microbiology, 2022).
# Experiments:
# [1] = tested on: recombinant T. cruzi proteins; experiment: Luminex-based multiplex serological assay (IgG to recombinant T. cruzi proteins); format: in vivo, rhesus macaques (Macaca mulatta); settings: for IgG response to G10 (36) / IgG response to Kn107 (20) / IgG response to Tc1 (3) / IgG response to Tc2 (6) / IgG response to Tc3 (11) / IgG response to Tc4 (16) / IgG response to Tc5 (22) / IgG response to Tc7 (27) / IgG response to Tc8 (31) / IgG response to Tc11 (35) / IgG response to Tc17 (51) / IgG response to Tc lysate (50): treated animal T19
# Experimental: (§1) Luminex-based multiplex serological assays were performed as previously described, [17]. For a number of smaller proteins, fusions of up to 2 individual genes are employed for some target proteins in order to expand the array of antibodies being detected while controlling costs and complexity of the assay. (TritrypDb.org identifiers: Tc1= fusion of TcBrA4_0116860 and TcYC6_0028190; Tc2= fusion of TcBrA4_0088420 and TcBrA4_0101960; Tc3 = fusion of TcBrA4_0104680 and TcBrA4_0101980; Tc4= fusion of TcBrA4_0028480 and TcBrA4_0088260; Tc5 = fusion of TcYC6_0100010 and TcBrA4_0074300; Tc7 = fusion of TcYC6_0083710 and TcBrA4_0130080; Tc8 = TcYC6_0037170; Tc11 = TcYC6_0124160; Tc17 = fusion of TcBrA4_0028230 and TcBrA4_0029760; Kn107 = TcCLB.508355.250; G10 = TcCLB.504199.20). Macaque antibody binding to individual beads in the Multiplex assays was detected with donkey anti-human IgG (H+L) conjugated to phycoerythrin (Jackson ImmunoResearch) in a 1:200 dilution.
# [2] = as above; format: in vivo, rhesus macaques (Macaca mulatta); settings: treated animal T19
# Experimental: as §1
smiles,measurement,setting,value
Cc1c(C(=O)N[C@H](C(=O)OCC2CCOCC2)C(C)C)ccc2c1B(O)OC2 [AN15368],IgG levels to recombinant T. cruzi proteins over time,"[1]; treated NHP, up to 42 months after end of treatment",Declining IgG levels
same,IgG response to G10 (36),[1]; 2017-09-13,45.3
same,IgG response to Kn107 (20),[1]; 2017-09-13,5.3
same,IgG response to Tc1 (3),[1]; 2017-09-13,4561.8
same,IgG response to Tc2 (6),[1]; 2017-09-13,786.0
same,IgG response to Tc3 (11),[1]; 2017-09-13,-22.8
same,IgG response to Tc4 (16),[1]; 2017-09-13,35.3
same,IgG response to Tc5 (22),[1]; 2017-09-13,-9.5
same,IgG response to Tc7 (27),[1]; 2017-09-13,2389.8
same,IgG response to Tc8 (31),[1]; 2017-09-13,14652.0
same,IgG response to Tc11 (35),[1]; 2017-09-13,292.3
same,IgG response to Tc17 (51),[1]; 2017-09-13,1360.0
same,IgG response to Tc lysate (50),[1]; 2017-09-13,2591.5
same,IgG response to G10 (36),[1]; 2017-11-17,2.8
same,IgG response to Kn107 (20),[1]; 2017-11-17,7.0
same,IgG response to Tc1 (3),[1]; 2017-11-17,2671.5
same,IgG response to Tc2 (6),[1]; 2017-11-17,364.3
same,IgG response to Tc3 (11),[1]; 2017-11-17,25.0
same,IgG response to Tc4 (16),[1]; 2017-11-17,39.3
same,IgG response to Tc5 (22),[1]; 2017-11-17,-11.5
same,IgG response to Tc7 (27),[1]; 2017-11-17,1520.3
same,IgG response to Tc8 (31),[1]; 2017-11-17,12143.5
same,IgG response to Tc11 (35),[1]; 2017-11-17,154.0
same,IgG response to Tc17 (51),[1]; 2017-11-17,1317.5
same,IgG response to Tc lysate (50),[1]; 2017-11-17,1854.3
same,IgG response to G10 (36),[1]; 2017-12-06,38.0
same,IgG response to Kn107 (20),[1]; 2017-12-06,21.8
same,IgG response to Tc1 (3),[1]; 2017-12-06,2769.0
same,IgG response to Tc2 (6),[1]; 2017-12-06,433.8
same,IgG response to Tc3 (11),[1]; 2017-12-06,-25.8
same,IgG response to Tc4 (16),[1]; 2017-12-06,11.8
same,IgG response to Tc5 (22),[1]; 2017-12-06,33.5
same,IgG response to Tc7 (27),[1]; 2017-12-06,1546.5
same,IgG response to Tc8 (31),[1]; 2017-12-06,12008.3
same,IgG response to Tc11 (35),[1]; 2017-12-06,211.8
same,IgG response to Tc17 (51),[1]; 2017-12-06,1420.3
same,IgG response to Tc lysate (50),[1]; 2017-12-06,1538.8
same,IgG response to G10 (36),[1]; 2017-12-20,-55.8
same,IgG response to Kn107 (20),[1]; 2017-12-20,36.8
same,IgG response to Tc1 (3),[1]; 2017-12-20,2355.8
same,IgG response to Tc2 (6),[1]; 2017-12-20,410.8
same,IgG response to Tc3 (11),[1]; 2017-12-20,34.8
same,IgG response to Tc4 (16),[1]; 2017-12-20,99.0
same,IgG response to Tc5 (22),[1]; 2017-12-20,41.0
same,IgG response to Tc7 (27),[1]; 2017-12-20,1365.3
same,IgG response to Tc8 (31),[1]; 2017-12-20,9274.0
same,IgG response to Tc11 (35),[1]; 2017-12-20,116.0
same,IgG response to Tc17 (51),[1]; 2017-12-20,1322.5
same,IgG response to Tc lysate (50),[1]; 2017-12-20,1584.0
same,IgG response to G10 (36),[1]; 2018-01-09,36.5
same,IgG response to Kn107 (20),[1]; 2018-01-09,76.0
same,IgG response to Tc1 (3),[1]; 2018-01-09,3757.5
same,IgG response to Tc2 (6),[1]; 2018-01-09,565.5
same,IgG response to Tc3 (11),[1]; 2018-01-09,64.8
same,IgG response to Tc4 (16),[1]; 2018-01-09,81.0
same,IgG response to Tc5 (22),[1]; 2018-01-09,-22.0
same,IgG response to Tc7 (27),[1]; 2018-01-09,1442.3
same,IgG response to Tc8 (31),[1]; 2018-01-09,13021.3
same,IgG response to Tc11 (35),[1]; 2018-01-09,357.0
same,IgG response to Tc17 (51),[1]; 2018-01-09,2026.0
same,IgG response to Tc lysate (50),[1]; 2018-01-09,2194.3
same,IgG response to G10 (36),[1]; 2018-01-23,14.8
same,IgG response to Kn107 (20),[1]; 2018-01-23,214.8
same,IgG response to Tc1 (3),[1]; 2018-01-23,4009.3
same,IgG response to Tc2 (6),[1]; 2018-01-23,590.8
same,IgG response to Tc3 (11),[1]; 2018-01-23,-15.0
same,IgG response to Tc4 (16),[1]; 2018-01-23,80.0
same,IgG response to Tc5 (22),[1]; 2018-01-23,19.8
same,IgG response to Tc7 (27),[1]; 2018-01-23,2161.8
same,IgG response to Tc8 (31),[1]; 2018-01-23,13766.8
same,IgG response to Tc11 (35),[1]; 2018-01-23,289.0
same,IgG response to Tc17 (51),[1]; 2018-01-23,2186.0
same,IgG response to Tc lysate (50),[1]; 2018-01-23,2937.3
same,IgG response to G10 (36),[1]; 2018-02-27,83.0
same,IgG response to Kn107 (20),[1]; 2018-02-27,-14.5
same,IgG response to Tc1 (3),[1]; 2018-02-27,2826.0
same,IgG response to Tc2 (6),[1]; 2018-02-27,413.5
same,IgG response to Tc3 (11),[1]; 2018-02-27,17.5
same,IgG response to Tc4 (16),[1]; 2018-02-27,111.0
same,IgG response to Tc5 (22),[1]; 2018-02-27,6.8
same,IgG response to Tc7 (27),[1]; 2018-02-27,1831.8
same,IgG response to Tc8 (31),[1]; 2018-02-27,11208.3
same,IgG response to Tc11 (35),[1]; 2018-02-27,163.8
same,IgG response to Tc17 (51),[1]; 2018-02-27,1943.5
same,IgG response to Tc lysate (50),[1]; 2018-02-27,1833.0
same,IgG response to G10 (36),[1]; 2018-03-28,-25.5
same,IgG response to Kn107 (20),[1]; 2018-03-28,5.5
same,IgG response to Tc1 (3),[1]; 2018-03-28,1762.3
same,IgG response to Tc2 (6),[1]; 2018-03-28,386.3
same,IgG response to Tc3 (11),[1]; 2018-03-28,60.0
same,IgG response to Tc4 (16),[1]; 2018-03-28,6.0
same,IgG response to Tc5 (22),[1]; 2018-03-28,32.5
same,IgG response to Tc7 (27),[1]; 2018-03-28,1344.3
same,IgG response to Tc8 (31),[1]; 2018-03-28,8779.3
same,IgG response to Tc11 (35),[1]; 2018-03-28,66.5
same,IgG response to Tc17 (51),[1]; 2018-03-28,1378.0
same,IgG response to Tc lysate (50),[1]; 2018-03-28,1572.0
same,IgG response to G10 (36),[1]; 2019-02-19,-6.3
same,IgG response to Kn107 (20),[1]; 2019-02-19,9.8
same,IgG response to Tc1 (3),[1]; 2019-02-19,1092.5
same,IgG response to Tc2 (6),[1]; 2019-02-19,189.8
same,IgG response to Tc3 (11),[1]; 2019-02-19,63.8
same,IgG response to Tc4 (16),[1]; 2019-02-19,9.0
same,IgG response to Tc5 (22),[1]; 2019-02-19,22.0
same,IgG response to Tc7 (27),[1]; 2019-02-19,910.3
same,IgG response to Tc8 (31),[1]; 2019-02-19,5960.0
same,IgG response to Tc11 (35),[1]; 2019-02-19,51.0
same,IgG response to Tc17 (51),[1]; 2019-02-19,927.0
same,IgG response to Tc lysate (50),[1]; 2019-02-19,1211.8
same,IgG response to G10 (36),[1]; 2020-06-18,-46.3
same,IgG response to Kn107 (20),[1]; 2020-06-18,15.0
same,IgG response to Tc1 (3),[1]; 2020-06-18,454.3
same,IgG response to Tc2 (6),[1]; 2020-06-18,7.3
same,IgG response to Tc3 (11),[1]; 2020-06-18,76.3
same,IgG response to Tc4 (16),[1]; 2020-06-18,6.0
same,IgG response to Tc5 (22),[1]; 2020-06-18,2.0
same,IgG response to Tc7 (27),[1]; 2020-06-18,373.3
same,IgG response to Tc8 (31),[1]; 2020-06-18,3159.8
same,IgG response to Tc11 (35),[1]; 2020-06-18,48.5
same,IgG response to Tc17 (51),[1]; 2020-06-18,793.0
same,IgG response to Tc lysate (50),[1]; 2020-06-18,640.8
same,IgG response to G10 (36),[1]; 2021-05-20,11.0
same,IgG response to Kn107 (20),[1]; 2021-05-20,65.5
same,IgG response to Tc1 (3),[1]; 2021-05-20,42.3
same,IgG response to Tc2 (6),[1]; 2021-05-20,-7.8
same,IgG response to Tc3 (11),[1]; 2021-05-20,3.8
same,IgG response to Tc4 (16),[1]; 2021-05-20,-20.3
same,IgG response to Tc5 (22),[1]; 2021-05-20,1.5
same,IgG response to Tc7 (27),[1]; 2021-05-20,293.3
same,IgG response to Tc8 (31),[1]; 2021-05-20,1814.0
same,IgG response to Tc11 (35),[1]; 2021-05-20,133.3
same,IgG response to Tc17 (51),[1]; 2021-05-20,399.3
same,IgG response to Tc lysate (50),[1]; 2021-05-20,384.5
same,IgG response to GFP (58),[2]; 2017-09-13,58.5
same,IgG response to GFP (58),[2]; 2017-11-17,-25.0
same,IgG response to GFP (58),[2]; 2017-12-06,27.0
same,IgG response to GFP (58),[2]; 2017-12-20,-24.3
same,IgG response to GFP (58),[2]; 2018-01-09,103.5
same,IgG response to GFP (58),[2]; 2018-01-23,-17.8
same,IgG response to GFP (58),[2]; 2018-02-27,-110.5
same,IgG response to GFP (58),[2]; 2018-03-28,-15.8
same,IgG response to GFP (58),[2]; 2019-02-19,-19.0
same,IgG response to GFP (58),[2]; 2020-06-18,-50.3
same,IgG response to GFP (58),[2]; 2021-05-20,-25.5
